This note sets out measurements from ChEMBL document CHEMBL1158734, “Chemical conversion of nocathiacin I to nocathiacin II and a lactone analogue of glycothiohexide alpha” (2005).

Structures are written as SMILES. Values after ≈ are worked out from the molar mass of the structure shown. Bounds are passed on as bounds.

Holding throughout (format): functional
Assay [1] has as its system Streptococcus pneumoniae. The assay can be described thus: Antibacterial activity against Streptococcus pneumoniae A28272.
Assay [2] relates to Staphylococcus aureus. Kind of assay: Antibacterial activity against Staphylococcus aureus A15090.
For assay [3], the system named is Staphylococcus aureus. Kind of assay: Protective activity against Staphylococcus aureus A15090 infected in sc dosed mouse. To be noted: read-out: PD50.
For assay [4], the system named is Enterococcus faecalis. Kind of assay: Antibacterial activity against Enterococcus faecalis A20688.

For the compound `CO/C(C)=C1/NC(=O)[C@H]([C@@H](C)O)NC(=O)c2csc(n2)-c2cc(O)c(-c3nc(C(N)=O)cs3)nc2-c2csc(n2)[C@@H]2COC(=O)c3c4c5c(cccc5n3O)COC(=O)[C@@H](O[C@H]3C[C@](C)(O)[C@H](N(C)C)[C@H](C)O3)[C@@H](OC4)[C@H](NC(=O)c3csc1n3)c1nc(cs1)C(=O)N2` [NOCATHIACIN IV], the figures for the MIC in assay [1], in assay [2] and in assay [4] were 1 ng/mL (≈ 0.731 nM), 3 ng/mL (≈ 2.19 nM) and 7 ng/mL (≈ 5.12 nM), respectively. Also, the ED50 in assay [3] was 1.07 mg/kg.

On to `C=C(NC(=O)c1csc(-c2nc3c(cc2O)-c2nc(cs2)C(=O)N[C@@H]([C@@H](C)O)C(=O)N/C(=C(\C)OC)c2nc(cs2)C(=O)N[C@@H]2c4nc(cs4)C(=O)N[C@@H](COC(=O)c4[nH]c5cccc6c5c4CO[C@@H]2[C@H](O[C@H]2C[C@](C)(O)[C@H](N(C)C)[C@H](C)O2)C(=O)OC6)c2nc-3cs2)n1)C(N)=O` [NOCATHIACIN II], for which the results for the minimum inhibitory concentration (MIC) in assay [1], in assay [2] and in assay [4] were 0.5 ng/mL (≈ 0.352 nM), 7 ng/mL (≈ 4.92 nM) and 150 ng/mL (≈ 106 nM), respectively. Besides, the ED50 in assay [3] was below 0.62 mg/kg.

For `C=C(NC(=O)c1csc(-c2nc3c(cc2O)-c2nc(cs2)C(=O)N[C@@H]([C@@H](C)O)C(=O)N/C(=C(\C)OC)c2nc(cs2)C(=O)N[C@@H]2c4nc(cs4)C(=O)N[C@@H](COC(=O)c4c5c6c(cccc6n4O)COC(=O)[C@@H](O[C@H]4C[C@](C)(O)[C@H](N(C)C)[C@H](C)O4)[C@H]2OC5)c2nc-3cs2)n1)C(N)=O` [MJ347-81F4 A], the MIC stood at 2 ng/mL (≈ 1.39 nM) in assay [1], 7 ng/mL (≈ 4.87 nM) in assay [2] and 30 ng/mL (≈ 20.9 nM) in assay [4]. Moreover, the ED50 in assay [3] was 0.31 mg/kg.

Consider `CO/C(C)=C1/NC(=O)[C@H]([C@@H](C)O)NC(=O)c2csc(n2)-c2cc(O)c(-c3nc(C(N)=O)cs3)nc2-c2csc(n2)[C@@H]2COC(=O)c3[nH]c4cccc5c4c3CO[C@H]([C@H](O[C@H]3C[C@](C)(O)[C@H](N(C)C)[C@H](C)O3)C(=O)OC5)[C@H](NC(=O)c3csc1n3)c1nc(cs1)C(=O)N2` [THIAZOMYCIN C], for which the MIC in assay [1] is 30 ng/mL (≈ 22.2 nM); in assay [2], 60 ng/mL (≈ 44.4 nM); in assay [4], 125 ng/mL (≈ 92.4 nM). The ED50 in assay [3] was 4.35 mg/kg.

For orientation: MIC means the lowest concentration found to suppress growth.
